From US20100160454A1, “ANTIMICROBIAL AGENTS, COMPOSITIONS AND PRODUCTS CONTAINING THE SAME, AND METHODS OF USING THE COMPOSITIONS AND PRODUCTS” (Eastman Chemical Company, priority 2008, published 2010)

Experiments:
Experiment in all cases: Challenge testing against pathogenic fungi, growth rating in broth tubes
Assay type in all cases: cell-based
Set-up in all cases: key: 0: No visible growth; 1: Some growth in tube; 2: Moderate growth in tube; 3: Good growth in tube; 4: Extreme growth in tube
[1] = test system: Trichophyton rubrum (ATCC 10218)
Experimental: (§1) Both Microsporum canis and Trichophyton rubrum were grown on Sabouraud dextrose broth, while Malassezia fufur was grown in Sabouraud dextrose broth supplemented with 2% (v/v) of olive oil and 0.2% (v/v) of Tween™ 80; incubation was at 22°±2° C. under continuous agitation by stirring for 10 days. The organisms were grown to a density of between 1.0×10^3 to 1.0×10^4 cfu/g. The actual inoculation cell density of these challenges were determined by diluting in sterile buffer water and (spread-plate method) plating for enumeration.
(§2) Challenge organisms were used to inoculate tubes of 1,4-CHDM-D90 test concentrations prepared in Sabouraud dextrose broth (or Sabouraud dextrose broth supplemented with olive oil-Tween™ 80 with M. furfur). The inoculations were in the amount of 1.5 mL aliquots of each culture with static incubation at 22±2° C. Subcultures were made at 3-, 14- and 30-day increments. All challenges were conducted in triplicate. In the case of M. canis, the growth response was assessed by the visual presence/absence of growth in the tubes; in the case of T. rubrum, a respiratory (redox) dye (0.2% w/v aqueous INT solution: 2-[4-iodophenyl)-3-4-nitrophenyl]-5-phenyl tetrazolium chloride) was added to the tubes, turning red if the organism was viable; and, finally, in the case of M. furfur, the growth response was assessed based upon pellicle formation in the tubes at the meniscus. The test formulations and challenge test results, as well as 30-day MICs (Minimum Inhibitory Concentration), are in Tables 7-9 for the three organisms using the following growth rating system:
(§3) • 0: No visible growth • 1: Some growth in tube • 2: Moderate growth in tube • 3: Good growth in tube • 4: Extreme growth in tube

[2] = test system: Malassezia furfur (ATCC 96809)
Experimental: as §1, §2, §3

[3] = test system: Microsporum canis (ATTC 9084)
Experimental: as §1, §2, §3

OCC1CCCCC1CO (stereo not drawn) [1,2-CHDM, 1,2-cyclohexanedimethanol]
T. rubrum growth rating, 3 day ([1]; 0.5% weight/volume): 0 | T. rubrum growth rating, 14 day ([1]; 0.5% weight/volume): 0 | T. rubrum growth rating, 30 day ([1]; 0.5% weight/volume): 0 | T. rubrum growth rating, 3 day ([1]; 1.25% weight/volume): 0 | T. rubrum growth rating, 14 day ([1]; 1.25% weight/volume): 0 | T. rubrum growth rating, 30 day ([1]; 1.25% weight/volume): 0 | T. rubrum growth rating, 3 day ([1]; 2.5% weight/volume): 1 | T. rubrum growth rating, 14 day ([1]; 2.5% weight/volume): 0 | T. rubrum growth rating, 30 day ([1]; 2.5% weight/volume): 0 | T. rubrum growth rating, 3 day ([1]; 5.0% weight/volume): 0 | T. rubrum growth rating, 14 day ([1]; 5.0% weight/volume): 0 | T. rubrum growth rating, 30 day ([1]; 5.0% weight/volume): 0 | M. furfur growth rating, 3 day ([2]; 0.5% weight/volume): 0 | M. furfur growth rating, 14 day ([2]; 0.5% weight/volume): 0 | M. furfur growth rating, 30 day ([2]; 0.5% weight/volume): 0 | M. furfur growth rating, 3 day ([2]; 1.25% weight/volume): 0 | M. furfur growth rating, 14 day ([2]; 1.25% weight/volume): 0 | M. furfur growth rating, 30 day ([2]; 1.25% weight/volume): 0 | M. furfur growth rating, 3 day ([2]; 2.5% weight/volume): 0 | M. furfur growth rating, 14 day ([2]; 2.5% weight/volume): 0 | M. furfur growth rating, 30 day ([2]; 2.5% weight/volume): 0 | M. furfur growth rating, 3 day ([2]; 5.0% weight/volume): 0 | M. furfur growth rating, 14 day ([2]; 5.0% weight/volume): 0 | M. furfur growth rating, 30 day ([2]; 5.0% weight/volume): 0 | M. canis growth rating, 3 day ([3]; 0.5% weight/volume): 2 | M. canis growth rating, 14 day ([3]; 0.5% weight/volume): 1 | M. canis growth rating, 30 day ([3]; 0.5% weight/volume): 1 | M. canis growth rating, 3 day ([3]; 1.25% weight/volume): 1 | M. canis growth rating, 14 day ([3]; 1.25% weight/volume): 0 | M. canis growth rating, 30 day ([3]; 1.25% weight/volume): 0 | M. canis growth rating, 3 day ([3]; 2.5% weight/volume): 0 | M. canis growth rating, 14 day ([3]; 2.5% weight/volume): 0 | M. canis growth rating, 30 day ([3]; 2.5% weight/volume): 0 | M. canis growth rating, 3 day ([3]; 5.0% weight/volume): 0 | M. canis growth rating, 14 day ([3]; 5.0% weight/volume): 0 | M. canis growth rating, 30 day ([3]; 5.0% weight/volume): 0

OCC1CCCC(CO)C1 (stereo not drawn) [1,3-CHDM, 1,3-cyclohexanedimethanol]
T. rubrum growth rating, 3 day ([1]; 0.5% weight/volume): 0 | T. rubrum growth rating, 14 day ([1]; 0.5% weight/volume): 2 | T. rubrum growth rating, 30 day ([1]; 0.5% weight/volume): 1 | T. rubrum growth rating, 3 day ([1]; 1.25% weight/volume): 1 | T. rubrum growth rating, 14 day ([1]; 1.25% weight/volume): 0 | T. rubrum growth rating, 30 day ([1]; 1.25% weight/volume): 0 | T. rubrum growth rating, 3 day ([1]; 2.5% weight/volume): 0 | T. rubrum growth rating, 14 day ([1]; 2.5% weight/volume): 0 | T. rubrum growth rating, 30 day ([1]; 2.5% weight/volume): 0 | T. rubrum growth rating, 3 day ([1]; 5.0% weight/volume): 2 | T. rubrum growth rating, 14 day ([1]; 5.0% weight/volume): 0 | T. rubrum growth rating, 30 day ([1]; 5.0% weight/volume): 0 | M. furfur growth rating, 3 day ([2]; 0.5% weight/volume): 0 | M. furfur growth rating, 14 day ([2]; 0.5% weight/volume): 1 | M. furfur growth rating, 30 day ([2]; 0.5% weight/volume): 3 | M. furfur growth rating, 3 day ([2]; 1.25% weight/volume): 0 | M. furfur growth rating, 14 day ([2]; 1.25% weight/volume): 2 | M. furfur growth rating, 30 day ([2]; 1.25% weight/volume): 3 | M. furfur growth rating, 3 day ([2]; 2.5% weight/volume): 0 | M. furfur growth rating, 14 day ([2]; 2.5% weight/volume): 0 | M. furfur growth rating, 30 day ([2]; 2.5% weight/volume): 0 | M. furfur growth rating, 3 day ([2]; 5.0% weight/volume): 0 | M. furfur growth rating, 14 day ([2]; 5.0% weight/volume): 2 | M. furfur growth rating, 30 day ([2]; 5.0% weight/volume): 3 | M. canis growth rating, 3 day ([3]; 0.5% weight/volume): 2 | M. canis growth rating, 14 day ([3]; 0.5% weight/volume): 1 | M. canis growth rating, 30 day ([3]; 0.5% weight/volume): 1 | M. canis growth rating, 3 day ([3]; 1.25% weight/volume): 2 | M. canis growth rating, 14 day ([3]; 1.25% weight/volume): 1 | M. canis growth rating, 30 day ([3]; 1.25% weight/volume): 1 | M. canis growth rating, 3 day ([3]; 2.5% weight/volume): 0 | M. canis growth rating, 14 day ([3]; 2.5% weight/volume): 0 | M. canis growth rating, 30 day ([3]; 2.5% weight/volume): 0 | M. canis growth rating, 3 day ([3]; 5.0% weight/volume): 2 | M. canis growth rating, 14 day ([3]; 5.0% weight/volume): 1 | M. canis growth rating, 30 day ([3]; 5.0% weight/volume): 1
